Series [1] deals with HepG2 cells. The experiment in a line: HepG2 in vitro viability assay (CellTiter-Glo, 72 hours). It is filed as cell-based, human. The settings on record: 72 hours. The protocol:
(§1) This assay assessed the general cytotoxicity of Compound 1 using the human hepatocarcinoma cell line HepG2. HepG2 cells were treated with Compound 1 for 72 hours and cellular viability was measured following the addition of CellTiter-Glo® 2.0 reagent (Promega) according to manufacturer's instructions. Agents were solubilized in DMSO and tested in the HepG2 cell line at concentrations ranging from 0.3 nM to 10 μM.
(§2) HepG2 cells were obtained from ATCC (Catalog No. HB-8065, Manassas, VA, USA) and maintained in MEM medium (Catalog No. 11095080, ThermoFisher Scientific, Waltham, MA, USA) supplemented with 10% heat inactivated fetal bovine serum (FBS) (Catalog No. 16000-044, Gibco, Grand Island, NY, USA) at 37° C. in an atmosphere of 5% CO2 in air. The cells were routinely sub-cultured to maintain cell density between 3×10^5-1.5×10^6 cells/mL, not to exceed 20 passages. Cells were washed with PBS, trypsinized for 5 min at 37° C., and resuspended in growth media. An aliquot was diluted 2× with Trypan Blue solution 0.4% (Catalog No. 15250061, ThermoFisher Scientific, Waltham, MA, USA) and cell count was determined. Cell concentration was adjusted with growth media to 1.0×10^4 cells/mL.
(§3) Compound 1 was prepared by dissolving neat compound in DMSO (Catalog No. D8418, Sigma-Aldrich, Inc., St. Louis, MO, USA) to generate 10 mM stock solution and stored at −20° C. 10 mM DMSO stock solution of Compound 1 was serially diluted (half log) in DMSO to generate 10-point dose series ([…]) in acoustic ready 384-well low dead volume microplates (Catalog No. LP-0200, Beckman Coulter Life Sciences, Indianapolis, IN, USA). Using an Echo 550 Acoustic Liquid Handler Handler (Beckman Coulter Life Sciences, Indianapolis, IN, USA), 50 nL of serially diluted compound solutions were dispensed directly in quadruplicate to each 384-well black TC-treated microplate (Catalog No. 3571, Corning, Glendale, CA, USA). 50 nL DMSO was transferred to all control wells.
(§4) 50 μL HepG2 cells suspended in growth media at 1.0×10^4 cells/mL (500 cells/well) were dispensed using a Multidrop Combi Reagent Dispenser (Catalog No. 5840300, ThermoFisher Scientific, Waltham, MA, USA) to each well of 384-well black TC-treated microplates containing quadruplicate concentration range of test compound and DMSO controls. Plates were incubated at 37° C., 5% CO2 for 72 hours. Final concentration of DMSO was 0.1% for all samples.
(§5) Additional cell plates (TO plates) were prepared by dispensing cells into a blank 384-well black TC-treated microplate to represent cytostatic controls and processed for viability detection immediately after cell dispensing.
(§6) HepG2 cell viability was determined based on quantification of ATP using CellTiter-Glo® 2.0 luminescent assay kit (Catalog No. G9243, Promega, Madison, WI, USA), which signals the presence of metabolically active cells. On Day 0 (Time 0) and Day 3 (72 hours) 25 μL CellTiter-Glo® reagent was added to each well of cell plates except the wells in column 24 and the luminescence was measured after 4 hours incubation at room temperature using an EnVision® Multilabel Reader (Catalog No. 2104-0010, Perkin Elmer Inc., Dumfries, VA, USA). Column 24 (cells without CellTiter-Glo® addition) was used as plate background or positive control (P).
(§7) Cytostatic control value (CT0) was computed from TO plate read using untreated cell signals (UT=0) and positive control signals (PT=0) as below.
(§8) Percent response of compound-treated samples at a time point T were calculated by normalizing the signal with P and DMSO treated negative (N) controls on the same microtiter plate and the CT0 control:
(§9) The Response % is thus 100% if the CellTiter-Glo® signal equals that of the DMSO treated controls (i.e., normal cell growth), 0% if it equals that of untreated cell at TO (i.e., cytostasis), and −100% if it equals the no CellTiter-Glo® reagent controls (i.e., complete cytotoxicity). […]

Assay in series [2]: as above
It is filed as cell-based, human. Particulars: human, HepG2 cells, 72-hour treatment. The protocol: as §1, §2, §3, §4, §5, §6, §7, §8, §9

Molecules are shown by their SMILES.

A word on the inhibition: it is the relative decrease from the control value, in per cent. One may read the viability as a read-out of living cells in per cent, often relative to untreated cells. With `COc1cc(-c2cn(C)c(=O)c(C)c2C)cc(OC)c1CN1CC[C@H](N2CCN(c3ccc(N[C@H]4CCC(=O)NC4=O)cc3F)CC2)C(F)(F)C1` [Compound 1, (S)-3-((4-(4-((S)-1-(2,6-dimethoxy-4-(1,4,5-trimethyl-6-oxo-1,6-dihydropyridin-3-yl)benzyl)-3,3-difluoropiperidin-4-yl)piperazin-1-yl)-3-fluorophenyl)amino)-piperidine-2,6-dione], in series [1] (Homo sapiens, HepG2, read-out: growth inhibition of HepG2 cells relative to 0.1% DMSO controls, 10 μM), the inhibition at 10 µM came to 33.4 ± 9.9%. In addition, the “effect on viability / growth of HepG2 cells” value in series [1] (concentrations up to 3.3 μM) is recorded as “No significant effect”. For the same compound, the viability at 72 h, 0.00032 µM in series [2] (0.32 nM) turned out to be 111%. In addition, the viability at 72 h, 0.00101 µM in series [2] (1.01 nM) is 102%. Also, in series [2] (3.17 nM), the viability at 72 h, 0.00317 µM stood at 97.7%. Also, the viability at 72 h, 0.01 µM in series [2] (10.0 nM) is 91.6%. Besides, the viability at 72 h, 0.0317 µM in series [2] (31.7 nM) turned out to be 97.4%. Further, the viability at 72 h, 0.1 µM in series [2] (100 nM) came to 92.5%. The viability at 72 h, 0.317 µM in series [2] (317 nM) came to 102%. For the same compound, the viability at 72 h, 1 µM in series [2] (1000 nM) worked out at 79%. Besides, the viability at 72 h, 3.161 µM in series [2] (3161 nM) stood at 84.6%. Further, the viability at 72 h, 9.99 µM in series [2] (9990 nM) amounted to 66.6%.

(Values after US20240245677A1, “SELECTED COMPOUNDS FOR TARGETED DEGRADATION OF BRD9” (C4 THERAPEUTICS, INC., priority 2021, published 2024).)
